Source: PMC8704491, “Prothoracicostatic Activity of the Ecdysis-Regulating Neuropeptide Crustacean Cardioactive Peptide (CCAP) in the Desert Locust” (International Journal of Molecular Sciences, 2021)

How the values were obtained:
[1] = test system: Schgr-CCAPR-1; experiment: aequorin bioluminescence assay, CHO-WTA11 cells; format: cell-based, Schistocerca gregaria
Excerpt: (§1) To deorphanize the three GPCRs, they were heterologously expressed in Chinese hamster ovary (CHO)-WTA11 cells, which stably express aequorin and a promiscuous Gα16 subunit. […] Intracellular signaling of Schgr-CCAPR-1, -2 and -3 was investigated in Schgr-CCAPR-expressing cells lacking the promiscuous Gα16 subunit (CHO-PAM28 cells) or co-expressing a cyclic AMP (cAMP) response element (CRE)-luciferase reporter (human embryonic kidney (HEK) 293T). In Schgr-CCAPR expressing CHO-PAM28 cells, Schgr-CCAP induced dose-dependent aequorin-based bioluminescent responses, with EC50 values in the subnanomolar range: 0.7 nM, 0.2 nM and 0.5 nM for Schgr-CCAPR-1, -2 and -3, respectively (Figure S4A).
(§2) Figure 2 Aequorin-based bioluminescent responses in cell-based receptor activity assays. (A) Dose-response curves induced by CCAP in CHO-WTA11-Schgr-CCAPR-1, -2 or -3 cells. The EC50 values are indicated. (B) Results for aequorin-based bioluminescent response induced in CHO-WTA11-Schgr-CCAPR-1, -2 and -3 cells upon addition of 1 µM of peptide. These cell-based receptor activity data were obtained from three independent experiments. The cell-based assays were executed in three independent transfections. Error bars in dose-response curves represent the S.E.M and the 100% level refers to the maximal response level. Agonist selectivity was normalized to bioluminescent response acquired by exposure to CCAP. The zero-response level corresponds to treatment with BSA medium only. Abbreviations: Schgr = Schistocerca gregaria, CCAP = crustacean cardioactive peptide, CCAPR = CCAP receptor, CCHa = CCHamide, ASTC = allostatin C, ASTCCC = allostatin CCC, Crz = corazonin, AKH I(I) = adipokinetic hormone I(I), INT = inotocin.
(§3) Aequorin and CRE(6x)-luc reporter assays, as well as maintenance of the cell cultures and cell transfections, were carried out as previously described. […] Minimum bioluminescence values correlate with the signal obtained in the blank condition (without exposure to S. gregaria peptides). Calculations were performed using the output file from the Microwin software (Berthold Technologies, Bad Wildbad, Germany) in Excel (Microsoft). Half-maximal effective concentrations (EC50) were determined with the PRISM software (Graphpad version 6.03) using non-linear regression, log(agonist) vs. normalized response, applied to a sigmoidal dose-response model.

[2] = test system: Schgr-CCAPR-2; experiment: aequorin bioluminescence assay, CHO-WTA11 cells; format: cell-based, Schistocerca gregaria
Excerpt: as §1, §2, §3

[3] = test system: Schgr-CCAPR-3; experiment: aequorin bioluminescence assay, CHO-WTA11 cells; format: cell-based, Schistocerca gregaria
Excerpt: as §1, §2, §3

[4] = test system: Schgr-CCAPR-1; experiment: aequorin bioluminescence assay, CHO-PAM28 cells; format: cell-based, Schistocerca gregaria; details: CHO-PAM28 cells lacking Gα16, aequorin; three independent experiments, in triplicate
Excerpt: as §1
as §3, with “model. […]” for “model.”
(§4) S c h g r-C C A P R -1 E C5 0 = 0 ,7 n M
(§5) S c hg r-C C A P R -2 E C5 0 = 0 ,2 n M
(§6) S c h g r-C C A P R -3 E C5 0 = 0 ,5 n M
(§7) S c h g r-C C A P R -1 E C5 0 = 0 ,0 1 n M
(§8) S c hg r-C C A P R -2 E C5 0 = 1 ,2 n M
(§9) S c hg r-C C A P R -3 E C5 0 = 0 ,0 5 n M
(§10) Dose-response curves induced by CCAP for cell -based receptor activity assays A) in CHO-PAM28-Schgr -CCAPR-1, -2 or -3 cells and B) in HEK293T Schgr -CCAPR-1, -2 or -3 cells, co - transfected with CRE(6x)-Luc construct. These cell-based receptor activity data were obtained from three independent experiments. The bioluminescence was measured in triplicate per concentration of Schgr -CCAP and per transfection. Error bars represent the S.E.M and the 100 % level refers to the maximal response level. […]

[5] = test system: Schgr-CCAPR-2; experiment: aequorin bioluminescence assay, CHO-PAM28 cells; format: cell-based, Schistocerca gregaria; details: CHO-PAM28 cells lacking Gα16, aequorin; three independent experiments, in triplicate
Excerpt: as §1
as §3, with “model. […]” for “model.”
as §4, §5, §6, §7, §8, §9, §10

[6] = test system: Schgr-CCAPR-3; experiment: aequorin bioluminescence assay, CHO-PAM28 cells; format: cell-based, Schistocerca gregaria; details: CHO-PAM28 cells lacking Gα16, aequorin; three independent experiments, in triplicate
Excerpt: as §1
as §3, with “model. […]” for “model.”
as §4, §5, §6, §7, §8, §9, §10

[7] = test system: Schgr-CCAPR-1; experiment: CRE(6x)-luc reporter assay, HEK-293T cells; format: cell-based, Schistocerca gregaria; details: CRE-controlled luciferase, three independent experiments, in triplicate
Excerpt: as §1
as §3, with “model. […]” for “model.”
as §4, §5, §6, §7, §8, §9, §10

[8] = test system: Schgr-CCAPR-2; experiment: CRE(6x)-luc reporter assay, HEK-293T cells; format: cell-based, Schistocerca gregaria; details: CRE-controlled luciferase, three independent experiments, in triplicate
Excerpt: as §1
as §3, with “model. […]” for “model.”
as §4, §5, §6, §7, §8, §9, §10

[9] = test system: Schgr-CCAPR-3; experiment: CRE(6x)-luc reporter assay, HEK-293T cells; format: cell-based, Schistocerca gregaria; details: CRE-controlled luciferase, three independent experiments, in triplicate
Excerpt: as §1
as §3, with “model. […]” for “model.”
as §4, §5, §6, §7, §8, §9, §10

[10] = test system: prothoracic gland (PG) explants; experiment: ecdysteroid secretion by prothoracic gland explants; set-up: species or system Schistocerca gregaria; details: 1 µM CCAP, 24 h, 50 µL Grace's insect medium, 30 °C, PG from N5IW nymphs, n = 16 vs n = 15, p < 0.001
Method: Figure 6 Ecdysteroid secretion by prothoracic gland (PG) explants incubated for 24 h in a volume of 50 µL Grace’s insect medium (GI) with or without 1 µM CCAP. PGs were micro-dissected from fifth instar (N5) nymphs at N5IW (inter-wing distance of at least 1.8 mm; GI, n = 15; GI + 1 µM CCAP, n = 16) Each data point represents 20E-equivalents secreted by PG from a single nymph. Mean ± S.E.M. is also indicated per group. Significant difference (p < 0.001) is indicated by asterisks (***) and was calculated by an unpaired t-test with Welch’s correction. Used abbreviations: CCAP = crustacean cardioactive peptide and GI = Grace’s Insect Medium.
To correlate the locust’s morphology to the nymphal ecdysteroid titer that regulates molting, hemolymph was collected as well at the described sampling moments. 20 µL hemolymph from each N5 animal was collected into 280 µL cold ethanol. Each sample was further processed as previously described. The ecdysteroid titers were subsequently quantified using the 20-Hydroxyecdysone ELISA kit (Bertin Technologies, Montigny-le-Bretonneux, France), according to the manufacturer’s protocol.
PGs of N5IW nymphs were micro-dissected in S. gregaria saline solution and incubated in 50 µL Grace’s Insect medium (GI) (Invitrogen, Waltham, MA, USA) containing 1 µM CCAP or in GI without peptide. […]

[11] = test system: Schgr-CCAPpre depleted nymphs; experiment: rescue of Schgr-CCAPpre depleted nymphs by CCAP injection; format: in vivo, Schistocerca gregaria; details: daily 0.92 pg CCAP in 4 µL saline throughout N5; 18/30; vs saline; p < 0.05, Fisher's exact test
Method: Figure 4 Phenotypic effect of Schgr-CCAPpre or Schgr-CCAPR-1, -2 and/or -3 depletion on ecdysis. (A) Percentage of nymphs displaying ecdysis arrest at nymphal-adult (N5-Ad) molt (n = 25, per construct). Nymphs were injected at N4D0, N4D4, N5D1, N5D4 and N5D7 with 400 ng of dsGFP (control), dsCCAPpre, dsCCAPR1/2/3a, dsCCAPR1/2/3b, dsCCAPR-1, dsCCAPR-2 or dsCCAPR-3. (B) Percentage of nymphs displaying ecdysis arrest at nymphal-nymphal (N4–N5) and N5-Ad molts (n = 25, per construct). Nymphs were injected in late N3, N4D1 and N4D4 with 400 ng of dsGFP (control), dsCCAPpre or dsCCAPR1/2/3a. (C) The timing of ecdysis initiation in dsGFP (control), dsCCAPpre (Schgr-CCAPpre knockdown) and dsCCAPR1/2/3a (Schgr-CCAPRs knockdown) injected nymphs, as observed starting from freshly molted fifth instar nymphs. A log-rank (Mantel-Cox) test was used to check for significant differences in ecdysis initiation between populations. (D) Rescue of Schgr-CCAPpre depleted nymphs (n = 30) by additional daily injections of 0.92 pg CCAP in 4 µL S. gregaria saline in N5. In the control groups, nymphs received dsGFP injections or dsCCAPpre injections (n = 31), with additional daily injections of S. gregaria saline in N5. Significant differences (p < 0.05) are indicated by an asterisk (*) and calculated by the Fisher’s exact test. (E) Ecdysis deficient phenotype (top photos). […]

[12] = test system: 20E levels; details: daily injection, adult American cockroach; ref [35]; cited from earlier work
Method: High relative transcript levels of the Schgr-CCAPRs were determined in the PG at N5WD. […] From these observations we conclude that CCAP acts directly on the prothoracic gland as a prothoracicostatic factor. In contrast to the ecdysiostatic activity of CCAP in S. gregaria nymphs, dai ...

[13] = test system: locust oviducts; details: Ca^2+-dependent, ref [32]; cited from earlier work
Excerpt: The three Schgr-CCAPRs show high sequence similarity to deorphanized CCAP receptors of D. melanogaster, T. castaneum and R. prolixus. Although only one CCAP receptor has been identified in many insect species, there are other species, such as S. gregaria, which have multiple isoforms. […] This is a commonly occurring feature during evolution of GPCR genes in both vertebrates and invertebrates. To supp ...

[14] = test system: heartbeat and skeletal muscles; set-up: method as in PMID 9151755, PMID 18835439, PMID 16968777; details: released into hemolymph during ecdysis; ref [14],[15],[33]; cited from earlier work
[15] = 1 µM peptide, normalized to CCAP response
[16] = aequorin and promiscuous Gα16, three independent experiments

Question: What does the source list for crustacean cardioactive peptide [CCAP]?
Answer: agonist selectivity, receptor activation [1, 15]: markedly activated; EC50 [1, 16]: 3.65 nM; agonist selectivity, receptor activation [2, 15]: markedly activated; EC50 [2, 16]: 0.32 nM; agonist selectivity, receptor activation [3, 15]: markedly activated; EC50 [3, 16]: 0.59 nM; EC50 [4]: 0.7 nM; EC50 [5]: 0.2 nM; EC50 [6]: 0.5 nM; EC50 [7]: 0.01 nM; EC50 [8]: 1.2 nM; EC50 [9]: 0.05 nM; ecdysteroid secretion (prothoracicostatic activity) [10]: significant prothoracicostatic activity; ecdysteroid secretion (prothoracicostatic activity) ([10]; listed as Schgr-CCAP): suppressed ecdysteroid secretion; rescue effect of ecdysis deficiency phenotype [11]: 60%; 20E levels [12]: elevated 20E levels; oviduct contractions [13]: induces Ca^2+-dependent contractions; heartbeat and contraction of skeletal muscles [14]: stimulate heartbeat and contraction of skeletal muscles
